Laboratory results from patent publication US20100150938A1, “METHODS AND COMPOSITIONS FOR REDUCING INFLAMMATION AND TREATING INFLAMMATORY DISORDERS” (UNIVERSITY OF MASSACHUSETTS, priority 2008, published 2010).
“Also recorded” adds a separate entry of the source. Non-standard residues stand in square brackets, D forms with d. Residues, ends and D or L forms follow the SMILES beside them. *: point of attachment. Sta = CC(C)C[C@H](N)[C@@H](O)CC(=O)O; Isovaleryl = CC(C)CC(=O)*; Cbz = O=C(OCc1ccccc1)*; CH2F = FC*

Columns and labels:
[1] = test system: THP-1 cells; experiment: Lysosomal rupturing in THP-1 cells, IL-1β release; type: cell-based, human; settings: PMA-differentiated THP-1 cells
Description: Cell culture supernatants were assayed for IL-1β using ELISA kits from BD Biosciences (Franklin Lakes, NJ) according to the manufacturer's instructions. To measure intracellular IL-1β, cells were washed and subjected to three freeze thaw cycles in assay diluent. PMA-differentiated THP-1 cells were incubated with hypertonic DMEM medium containing 10% polyethylene glycol (PEG) 1000, 1.4 M sucrose, 20 mM Hepes (pH 7.2) and 5% FCS for […] at 37° C. Cells were subsequently washed and incubated in hypotonic DMEM medium [DMEM: H2O (3:2)] for 2 min to induce lysosomal rupturing. Cells were then incubated in serum free DMEM for additional 4 hours.

[2] = test system: caspase-1; experiment: Caspase-1 cleavage/activation in mouse macrophages (Western blot p10); type: cell-based; settings: for caspase-1 cleavage induced by the stimulus: LPS-primed bone marrow-derived macrophages, wild-type; for caspase-1 cleavage (p10) induced by the stimulus: LPS-primed wild type bone marrow-derived macrophages, Aβ and reverse Aβ 10 μM
Description: (§1) Bone marrow derived macrophages were generated as described (Severa, M et al. Journal of Biological Chemistry 281:26188-26195 (2006)). Human PBMCs were isolated by from whole blood of healthy volunteers by density gradient centrifugation. Lysis of red blood cells was performed using red blood cell lysis buffer (Sigma). Experiments in PBMCs and macrophages were carried out at a cell density of 2×10^6 cells/ml. All primary cells and cell lines except THP-1 cells were cultured in DMEM supplemented with L-glutamine, ciprofloxacin (Cellgro, Manassas, Va.) and 10% fetal calf serum (Hyclone, Logan, Utah). THP-1 cells were cultured in RPMI supplemented with 10% fetal calf serum (Hyclone), L-glutamine, sodium pyruvate (Cellgro), and ciprofloxacin. One day prior to stimulation, THP-1 cells were differentiated using 0.5 μM PMA for three hours, washed three times and plated for stimulation. All experiments that were performed for Western blot analysis were carried out in serum free DMEM medium. ATP stimulations were carried out at 5 mM one hour prior to harvesting supernatants.
Cell culture supernatants were precipitated by adding an equal volume of methanol and 0.25 volumes of chloroform, vortexed and centrifuged at 20.000×g for 10 min. The upper phase was discarded and 500 μl of methanol was added to the interphase. This mixture was centrifuged at 20.000×g for 10 min and the protein pellet dried at 55° C., resuspended in Laemmli buffer and boiled at 99° C. for 5 min. Samples were separated by SDS-PAGE (15%) and transferred onto nitrocellulose membranes. As indicated, blots were incubated with rabbit polyclonal antibody to anti murine caspase-1 p10 (sc-514, Santa Cruz Biotechnology, Santa Cruz, Calif.), rabbit polyclonal anti human caspase-1 p10 (sc-515, Santa Cruz Biotechnology), rabbit polyclonal anti human cleaved IL-1β (Asp116) (Cell Signaling, Boston, Mass.) or rabbit polyclonal anti murine cathepsin B (R&D Systems, Minneapolis, Minn.).
Cell culture supernatants were precipitated by adding an equal volume of methanol and 0.25 volumes of chloroform, vortexed and centrifuged at 20,000×g for 10 min. The upper phase was discarded and 500 μl of methanol was added to the interphase. This mixture was centrifuged at 20,000×g for 10 min and the protein pellet dried at 55° C., resuspended in Laemmli buffer and boiled at 99° C. for 5 min Samples were separated by SDS-PAGE (15%) and transferred onto nitrocellulose membranes. Blots were incubated with rabbit polyclonal antibody to anti murine caspase-1 p10 (sc-514, Santa Cruz Biotechnology, Santa Cruz, Calif.).

[3] = test system: caspase-1; experiment: Caspase-1 activation in microglia (FLICA, confocal microscopy, flow cytometry); type: cell-based, mouse
Description: For assessment of microglia-induced neurotoxicity, CAD mouse neuronal cells^47 were seeded on poly-L-lysine coated glass cover slips and grown in F12/DMEM supplemented with ciprofloxacin (Cellgro, Manassas, Va.) and 10% fetal calf serum (Hyclone, Logan, Utah) for 24 h. Differentiation was induced by withdrawal of serum for 48 h Immortalized microglia from wildtype or caspase-1^−/− mice were added in serum free medium to obtain mixed neuronal/microglial cultures and immediately stimulated. 72 h after stimulation with Aβ or media, cells were fixed, stained for the neuron-specific marker TuJ-1 and microglial marker CD11b, and imaged by confocal microscopy (Leica SP2 AOBS). Caspase-1 activity in microglial cells was assessed using the caspase-1 FLICA™ kit (Immunochemistry Technologies, Bloomington, Minn.) according to the manufacturer's instructions.
For evaluation of lysosomal damage, cells were incubated with LysoTracker green (1:2000) for 30 min and stimulated as described. Lysosomal damage was defined as loss of LysoTracker fluorescence as assessed by flow cytometry. All flow cytometry experiments were performed on an LSRII cytometer (BD Biosciences), data were acquired by DIVA software (BD Biosciences) and analyzed with FlowJo software (Tree Star Inc., Ashland, Oreg.).
IL-1β maturation is controlled by caspase-1 after assembly of the inflammasome, a multi protein complex that activates pro-caspase-1. In order to test whether Aβ activates caspase-1, we measured levels of activated caspase-1 using a fluorescent cell permeable probe (FAM-YVAD-Fmk), which covalently binds only to activated caspase-1 (Fluorescent labeled Inhibitors of Caspases, FLICA)^14. […] Similar results were obtained in primary microglial cultures (FIG. 15c).

[4] = test system: ASC; experiment: ASC-CFP microglia cell line, ASC clustering; type: cell-based, mouse; settings: LPS-primed ASC-CFP microglia, 3 h after stimulation
Text: Human ASC was fused to CFP using BgIII/BamHI in pEF-BOS-CFP. Subsequently, ASC-CFP was cloned using XhoI and NotI into a modified form of FUGW (FUGW-XN). FUGW-XN was modified by replacing GFP with a novel cut site that created XhoI and NotI compatible ends upon Esp3I digestion.
Lentivirus was produced in 293T cells transfected with the FUGW based expression vector coding for ASC-CFP, lentiviral packaging plasmid containing gag, pol and rev genes (pCMV-dR8.91) and envelope plasmid (VSV-G) using TransIT-LT1 transfection reagent (Minis Bio, MIR 2300/5/6) as previously described^46. One day after transfection, medium was replaced and after one additional day of culture supernatants containing the lentivirus was removed, filtered and used to infect immortalized microglia cells.
For experiments, ASC-CFP microglial cells were seeded in duplicate into confocal dishes, stimulated as indicated. A647-labeled cholera toxin subunit B (1:1000) was added to stain cellular membranes. Cells were subsequently imaged using confocal microscopy (Leica SP2 AOBS). Cells were fixed and 5 random fields were imaged in duplicate for quantification.
First, we stably transduced microglial cell cultures with a fusion protein of ASC and cyan fluorescent protein (CFP). ASC forms large oligomers upon its activation, leading to visible changes in the cytoplasmic fluorescence pattern of ASC-CFP. […]

[5] = test system: mouse microglia; experiment: IL-1β release from LPS-primed mouse microglia (ELISA); type: cell-based; settings: LPS-primed immortalized microglia
Description: For primary cultures, bone marrow-derived macrophages and microglia were isolated as described^42,43 and cultured in DMEM supplemented with L-glutamine, ciprofloxacin (Cellgro, Manassas, Va.) and 10% fetal calf serum (Hyclone, Logan, Utah) Immortalized macrophage and microglial cell lines were generated using J2 recombinant retrovirus (carrying v-myc and v-raf oncogenes)^44,45. Briefly, primary bone marrow cells were incubated in L929 conditioned medium for 3-4 days to induce macrophage differentiation. Cells were then infected with J2 recombinant retrovirus and maintained in culture until cells were growing in the absence of conditioned medium. Similarly, primary mixed glial cultures were cultured until fully confluent. After two consecutive infections with J2 retrovirus, cells were maintained in normal medium until growth of microglial cells in colonies was observed. The semi-adherent colonies of microglial cells were washed off and cultured in new flasks. […] Microglial cell lines form wild type (C57/BL6), Caspase-1^−/− and IL-IR^−/− mice as well as macrophage cell lines from wild type (C57BL6), NALP3 -, IPAF- and ASC-deficient mice were generated and used for experiments as indicated.
(§2) Stimulations were carried out in serum free DMEM medium. Microglial cells and macrophages were primed with 100 U/ml IFNγ (Griess assay, TNF ELISA, real-time quantitative PCR) or 100 ng/ml ultrapure LPS (IL-1β ELISA, FLICA, ASC-CFP microglia cell line assay, Western blot) 1-3 h prior to stimulation with Aβ, revAβ, zymosan, ATP or transfection with dAdT.
Cell culture supernatants were assayed for IL-1β and TNFα using ELISA kits from R&D Systems (Minneapolis, Minn.) according to the manufacturer's instructions. Nitric oxide was measured by Griess reaction of nitrites accumulated in the supernatants using chemicals from Sigma.

[6] = test system: lysosomes of mouse macrophages; experiment: Lysosomal acidification, proteolysis and rupture in mouse macrophages (LysoSensor Green, DQ ovalbumin, acridine orange, dextran); type: cell-based
Description: For evaluation of lysosomal rupture, cells were incubated with 1 μg/m1 acridine orange for 15 min, washed three times and subsequently stimulated as indicated. Lysosomal rupture can be assessed by loss of emission at 600-650 nm using flow cytometry. All flow cytometry experiments were performed on an LSRII cytometer (BD Biosciences). Data were acquired by DIVA (BD Biosciences) and analyzed by FlowJo software (Tree Star Inc., Ashland, Oreg.).
Confocal reflection microscopy was combined with fluorescence microscopy on a Leica SP2 AOBS confocal laser scanning microscope. Reflection was captured by placing the detector channel directly over the wavelength of the selected laser channel for reflection light capture and the AOBS was set to allow 5-15% of laser light into the collection channel. Fluorescence was simultaneously captured by standard confocal imaging techniques.

[7] = test system: mouse macrophages; experiment: IL-1β release from LPS-primed mouse macrophages (bone marrow-derived, B6-MCLs), ELISA; type: cell-based
Description: as §1
Immortalized macrophage cell lines were generated using the previously described J2 recombinant retrovirus (carrying v-myc and v-raf/mil oncogenes) (Roberson, S. M. & Walker, W. S. Cellular immunology 116:341-351 (1988)). Briefly, primary bone marrow cells were incubated in L929 conditioned medium for 3-4 days to induce macrophage differentiation. Subsequently, cells were infected with J2 recombinant retrovirus. Cells were maintained in culture for 3-6 months slowly weaning off the percentage of L929 supernatant until cells were growing in the absence of conditioned medium.
Macrophage phenotype was verified by surface marker expression for CD11b and F480 as well as a range of functional parameters, including responsiveness to TLR ligands and bacterial uptake. Macrophage cell lines from wild-type (C57BL6), NALP3- and ASC-deficient mice were generated and are referred to as B6-MCLs, NALP3 -MCLs and ASC-MCLs.
Cell culture supernatants were assayed for IL-1β using ELISA kits from BD Biosciences (Franklin Lakes, NJ) according to the manufacturer's instructions. To measure intracellular IL-1β, cells were washed and subjected to three freeze thaw cycles in assay diluent.
as §2

Nc1ncnc2c1ncn2[C@@H]1O[C@H](COP(=O)(O)OP(=O)(O)OP(=O)(O)O)[C@@H](O)[C@H]1O [ATP]
IL-1β release induced by the stimulus ([1]; 4 h): increased IL-1β release | caspase-1 cleavage induced by the stimulus [2]: induced in a dose dependent way | caspase-1 cleavage (p10) induced by the stimulus [2]: induced caspase-1 cleavage (p10) | caspase-1 positive microglial cells after stimulation ([3]; immortalized microglia, Aβ 10 μM, revAβ 10 μM, ATP 1 mM, 4 h): robust increase | formation of fluorescent ASC-CFP clusters [4]: also observed

CCCNC(=O)[C@H]1O[C@@H]1C(=O)N[C@H](C(=O)N1CCC[C@H]1C(=O)OC)[C@@H](C)CC [CA-074-Me]
IL-1β release after lysosomal rupture, inhibitor present [1]: clearly reduced | Aβ-induced IL-1β release in presence of cathepsin inhibitor [5]: dose-dependently inhibited | caspase-1 activation after silica crystal treatment, inhibitor present ([2]; LPS-primed B6-MCLs, CA-074-Me 10 μM (FIG. 5a)): much less caspase-1 activation | caspase-1 cleavage after crystal-independent disruption of lysosomes, inhibitor present ([2]; mouse macrophages, hypertonic then hypotonic media, CA-074-Me 10 or 2 μM): partially inhibited | caspase-1 activation after Aβ stimulation, inhibitor present ([3]; microglia, FLICA, flow cytometry): strongly and dose-dependently inhibited; also recorded: dose-dependently reduced | caspase-1 activation induced by ATP, inhibitor present ([3]; microglia, FLICA, inhibitor 20 μM): not affected; also recorded: no effect

COC(=O)[C@H](CC(C)C)NC(=O)[C@@H](N)CC(C)C [Leu-Leu-OMe, L-leucyl-L-leucine methyl ester]
lysosomal rupture / loss of lysosomes caused by the stimulus ([6]; mouse macrophages, acridine orange, DQ ovalbumin, dextran): considerable swelling and rupture of lysosomes | IL-1β produced in response to the stimulus ([7]; LPS-primed macrophages from wild-type mice): large quantities of IL-1β

O=C(NC(Cc1ccccc1)C(=O)NC(Cc1ccccc1)C(=O)CF)OCc1ccccc1 (stereo not drawn) [Z-FF-FMK] (Cbz-Phe-Phe-CH2F; configuration not given here)
Aβ-induced IL-1β release in presence of cathepsin inhibitor [5]: no effect; also recorded: no attenuation

CO/C1=C\C(C)=C\[C@@H](C)[C@@H](O)[C@@H](C)C/C(C)=C/C=C/[C@H](OC)[C@@H]([C@@H](C)[C@@H](O)[C@H](C)[C@@]2(O)C[C@@H](O)[C@H](C)[C@@H](C(C)C)O2)OC1=O [bafilomycin A]
formation of acidic lysosomes (LysoSensor Green) ([6]; mouse macrophages): blocked | Leu-Leu-OMe-induced lysosomal morphology change and rupture, inhibitor present ([6]; mouse macrophages (data not shown)): much less altered lysosomal morphology and rupture | appearance of fluorescent DQ ovalbumin (lysosomal proteolytic function) ([6]; mouse macrophages, bafilomycin 250 nM): suppressed | ATP-induced IL-1β release, inhibitor present ([7]; LPS-primed B6-MCLs, 6 h): no effect | silica-mediated IL-1β release, inhibitor present ([7]; LPS-primed B6-MCLs, 6 h): completely blocked | release of IL-1b in response to Leu-Leu-OMe, inhibitor present ([7]; LPS-primed bone marrow-derived macrophages, bafilomycin 250 nM): also inhibited

CC(C)CC(=O)N[C@H](C(=O)N[C@H](C(=O)N[C@@H](CC(C)C)[C@@H](O)CC(=O)N[C@@H](C)C(=O)N[C@@H](CC(C)C)[C@@H](O)CC(=O)O)C(C)C)C(C)C [pepstatin A] (Isovaleryl-VV[Sta]A[Sta]-OH)
Aβ-induced IL-1β release in presence of cathepsin inhibitor [5]: no effect; also recorded: no attenuation

poly(deoxyadenylic-thymidylic) acid sodium salt [poly(dA:dT)]
caspase-1 cleavage induced by the stimulus [2]: induced in a dose dependent way | caspase-1 cleavage (p10) induced by the stimulus [2]: induced caspase-1 cleavage (p10)
